Results on four compounds are retold here after publication PMC3177827 (PLoS ONE, 2011).

Where a SMILES comes first, the peptide text is derived from it. The star is where a group is joined. pNA = O=[N+]([O-])c1ccc(N*)cc1; Cbz = O=C(OCc1ccccc1)*

One series concerns pepsin. In words: Degradation of 33-mer and 26-mer gliadin peptides by pepsin. It counts as in vitro ADME. The conditions noted are these: peptide 250 µg/ml; pepsin 1 µg/ml in 0.1 M HCl, pH 1.0; sampled at t = 0 and 24 h; RP-HPLC. The protocol: (§1) Synthetic highly immunogenic peptides derived from α2-gliadin ([…]; 33-mer) or γ-gliadin ([…]; 26-mer) were synthesized at a purity of 95% (21st Century Biochemicals, Marlboro, MA), dissolved in deionized water to 10 mg/ml. The peptides (final concentration 250 µg/ml) were incubated with trypsin or chymotrypsin (1 µg/ml in 50 mM ammonium bicarbonate, pH 8.0), or pepsin (1 µg/ml in 0.1 M HCl, pH 1.0) or strain WSA-8 (R. aeria) in saliva ion buffer (OD620 1.2, pH 7.0). Degradation of the 33-mer and 26-mer over time was monitored in 100 µl aliquots by RP-HPLC as reported previously.
(§2) The 100 µl sample aliquots were mixed with 900 µl buffer A containing 0.1% (v/v) trifluoroacetic acid (TFA), filtered and analyzed by RP-HPLC using a HPLC Model 715 (Gilson, Middleton, WI) and a C-18 column (TSK-GEL 5 µm, ODS-120T, 4.6×250 mm, TOSOHaas, Montgomeryville, PA). Peptides were eluted using a linear gradient from 0% to 55% buffer B containing 80% (v/v) acetonitrile and 0.1% (v/v) TFA over a 75 min time interval at a flow rate of 1.0 ml/min. The eluate was monitored at 219 and 230 nm and eluting fractions were collected using peak width and peak sensitivity settings of 1.2 and 5, respectively (Unipoint version 3.3, Gilson). […]
(§3) Figure 4 Degradation of the 33-mer by mammalian enzymes and by enzymes associated with R. aeria. […] Degradation of the 33-mer in incubation aliquots was monitored by RP-HPLC. […]

In series [1] the test system is WSA-8 (R. aeria). The experiment in a line: Degradation and fragment analysis of 33-mer and 26-mer in a suspension of WSA-8. It counts as in vitro ADME, Rothia aeria. Conditions: peptide 250 µg/ml; WSA-8 (R. aeria) in saliva ion buffer, OD620 1.2, pH 7.0; sampled at 0, 30, 60, 120 min; RP-HPLC. On the procedure: as §1
The 100 µl sample aliquots were mixed with 900 µl buffer A containing 0.1% (v/v) trifluoroacetic acid (TFA), filtered and analyzed by RP-HPLC using a HPLC Model 715 (Gilson, Middleton, WI) and a C-18 column (TSK-GEL 5 µm, ODS-120T, 4.6×250 mm, TOSOHaas, Montgomeryville, PA). […] The eluate was monitored at 219 and 230 nm and eluting fractions were collected using peak width and peak sensitivity settings of 1.2 and 5, respectively (Unipoint version 3.3, Gilson). […]
All dried peaks were dissolved in 25 µl of a solution containing 5% acetonitrile and 0.1% formic acid. […] The raw MS/MS data of the peptide ions in each of the analyzed samples were searched against an in-house generated database containing the sequences of the 33-mer and the 26-mer using SEQUEST software (Bioworks Browser 3.3.1, Thermo-Finnigan). […]

A further series deals with trypsin. The experiment in a line: Degradation of 33-mer and 26-mer gliadin peptides by trypsin. It counts as in vitro ADME. The conditions noted are these: peptide 250 µg/ml; trypsin 1 µg/ml in 50 mM ammonium bicarbonate, pH 8.0; sampled at t = 0 and 24 h; RP-HPLC. On the procedure:
as §1, §2, §3

In the next series the test system is chymotrypsin. The experiment in a line: Degradation of 33-mer and 26-mer gliadin peptides by chymotrypsin. Conditions: peptide 250 µg/ml; chymotrypsin 1 µg/ml in 50 mM ammonium bicarbonate, pH 8.0; sampled at t = 0 and 24 h; RP-HPLC. The class given is in vitro ADME. On the procedure: as §1, §2, §3
Series [2] in a line: bacterial suspension in saliva ion buffer (OD620 1.2). Conditions: up to 24 h.
The nature of series [3]: WSA-8 cells (OD620 1.2) in 20 mM Tris solution, pH 2.0. The conditions noted are these: Rothia aeria (strain WSA-8), up to 72 h.
In series [4] the test system is WSA-8 (R. aeria). In words: pH activity analysis: Z-YPQ-pNA hydrolysis by WSA-8 cells. It counts as biochemical, Rothia aeria. The conditions noted are these: Z-YPQ-pNA 200 µM, WSA-8 cells OD620 1.2, 20 mM Tris, 405 nm, activity not reactivated at neutral pH. The protocol:
Figure 6 Gliadin zymography (6%) of Rothia strains and pH activity analysis. In the zymogram gels 150 µl cells (OD620 5.0) were applied per lane. Lane 1, strain WSA-2B (R. mucilaginosa); lanes 2: strain WSA-8 (R. aeria), lane 3: strain WSA-26 (R. mucilaginosa); lane 4: strain ATCC 25296 (R. mucilaginosa). A, gel developed at pH 7.0; B, gel developed at pH 3.0. C, Z-YPQ-pNA (200 µM) hydrolysis by WSA-8 cells (OD620 1.2) measured in 20 mM Tris solutions ranging in pH from 2.0 to 10.0. Measurements at 405 nm were carried out hourly for the first 6 hours and after 24 h and 72 h.
To determine protease activities under conditions that are representative of the stomach, the zymogram gel with the four Rothia strains was also developed at pH 3.0 (Figure 6B). […] To further investigate the pH range over which strain R. aeria was active, Z-YPQ-pNA substrate hydrolysis was measured in solutions ranging in pH from 2.0 to 10.0. […] Substrate hydrolysis rates decreased in parallel with decreasing pH values from pH 7.0 to pH 4.0. At pH 3.0 substrate cleavage was noted only after 72 h incubation. The slow but noticeable enzyme activity of R. aeria at this pH value is consistent with the gliadin zymogram results presented in Figure 6B.

On to `CC(C)C[C@H](NC(=O)[C@@H](N)Cc1ccccc1)C(=O)N[C@@H](CCC(N)=O)C(=O)N1CCC[C@H]1C(=O)N[C@@H](CCC(N)=O)C(=O)N[C@@H](CCC(N)=O)C(=O)N1CCC[C@H]1C(=O)N[C@@H](Cc1ccccc1)C(=O)N1CCC[C@H]1C(=O)N[C@@H](CCC(N)=O)C(=O)N[C@@H](CCC(N)=O)C(=O)N1CCC[C@H]1C(=O)N[C@@H](CCC(N)=O)C(=O)N[C@@H](CCC(N)=O)C(=O)N1CCC[C@H]1C(=O)N[C@@H](Cc1ccc(O)cc1)C(=O)N1CCC[C@H]1C(=O)N[C@@H](CCC(N)=O)C(=O)N[C@@H](CCC(N)=O)C(=O)N1CCC[C@H]1C(=O)N[C@@H](CCC(N)=O)C(=O)N[C@@H](CCC(N)=O)C(=O)N1CCC[C@H]1C(=O)N[C@@H](Cc1ccccc1)C(=O)N1CCC[C@H]1C(=O)N[C@@H](CCC(N)=O)C(=O)O` [26-mer] (H-FLQPQQPFPQQPQQPYPQQPQQPFPQ-OH), for which the degradation by pepsin entry with pepsin was “resistant to degradation”. Moreover, the “degradation in a cell suspension of WSA-8 over the 2 h time interval” value in the series on WSA-8 (R. aeria) [1] is “sensitive to proteolytic degradation”. Besides, the degradation by trypsin entry in the series with trypsin is “resistant to degradation”. Also, the degradation by chymotrypsin result in the series with chymotrypsin is recorded as “resistant to degradation”.

As to `CC(C)C[C@H](NC(=O)[C@H](CCC(N)=O)NC(=O)[C@@H](N)CC(C)C)C(=O)N[C@@H](CCC(N)=O)C(=O)N1CCC[C@H]1C(=O)N[C@@H](Cc1ccccc1)C(=O)N1CCC[C@H]1C(=O)N[C@@H](CCC(N)=O)C(=O)N1CCC[C@H]1C(=O)N[C@@H](CCC(N)=O)C(=O)N[C@@H](CC(C)C)C(=O)N1CCC[C@H]1C(=O)N[C@@H](Cc1ccc(O)cc1)C(=O)N1CCC[C@H]1C(=O)N[C@@H](CCC(N)=O)C(=O)N1CCC[C@H]1C(=O)N[C@@H](CCC(N)=O)C(=O)N[C@@H](CC(C)C)C(=O)N1CCC[C@H]1C(=O)N[C@@H](Cc1ccc(O)cc1)C(=O)N1CCC[C@H]1C(=O)N[C@@H](CCC(N)=O)C(=O)N1CCC[C@H]1C(=O)N[C@@H](CCC(N)=O)C(=O)N[C@@H](CC(C)C)C(=O)N1CCC[C@H]1C(=O)N[C@@H](Cc1ccc(O)cc1)C(=O)N1CCC[C@H]1C(=O)N[C@@H](CCC(N)=O)C(=O)N1CCC[C@H]1C(=O)N[C@@H](CCC(N)=O)C(=O)N1CCC[C@H]1C(=O)N[C@@H](Cc1ccccc1)C(=O)O` [33-mer] (H-LQLQPFPQPQLPYPQPQLPYPQPQLPYPQPQPF-OH), the degradation by pepsin entry in the series with pepsin is on record as “resistant to degradation”. Further, in the series with trypsin, the degradation by trypsin entry was “resistant to degradation”. In the series with chymotrypsin, the degradation by chymotrypsin entry is “resistant to degradation”.

For the compound Cbz-Tyr-Pro-Gln-pNA, the not cleaved entry in series [2] (Bifidobacterium dentium HOT-588 (strain PAN-5)), in series [2] (Bifidobacterium dentium HOT-588 (strain PAN-8)), in series [2] (Bifidobacterium dentium HOT-588 (strain PAN-18)), in series [2] (Bifidobacterium dentium HOT-588 (strain PAN-19)), in series [2] (Bifidobacterium dentium HOT-588 (strain PAN-23)) and in series [2] (Bifidobacterium longum HOT-B54 (strain WSAN-14)) was “− after 24 h” in each case. The not cleaved entry in series [2] (Bifidobacterium longum HOT-B54 (strain WSAN-16)) was “− after 24 h”; in series [2] (Bifidobacterium longum HOT-B54 (strain WSAN-24)) it was “− after 24 h”; in series [2] (Staphylococcus epidermidis HOT-601 (strain WSA-10)), “− (inactive) after 24 h”; in series [2] (Streptococcus pneumoniae HOT-734 (strain PAN-0)) it was “− after 24 h”; in series [2] (Veilonella atypica HOT-524 (strain WSAN-25)), “− after 24 h”; in series [3], “no Z-YPQ-pNA hydrolysis could be observed”.

As for “benzyloxycarbonyl-YPQ-paranitroanilide [Z-YPQ-pNA]”, the “substrate hydrolysis at pH 2.0” value in the series with WSA-8 (R. aeria) [4] is recorded as “no Z-YPQ-pNA hydrolysis could be observed”.
